Source: PubChem BioAssay AID1963984 (Molecular Pharmacology Branch, DTP, NCI, 2024)

Tested on: 233499-124-R-J3-PDC spheroids with HUVEC/MSC, viability
Assay: Anticancer human tumor 233499-124-R-J3-PDC patient-derived colon adenocarcinoma cell line growth inhibition [PI3K]
Details: for IC50: curve of first compound; for viability, T/C: stronger effect = lower value
Method in brief: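 Targeted small molecules plus PI3K inhibitors, half-log dose series from Cmax (default top 10 microM), were applied to heterotypic spheroids of cancer cells with HUVEC and MSCs. Viability indicated growth inhibition.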

[1] = second compound 0.00316 µM, first compound 0.0316 µM
[2] = second compound 0.00316 µM, first compound 0.1 µM
[3] = second compound 0.00316 µM, first compound 0.316 µM
[4] = second compound 0.00316 µM, first compound 1 µM
[5] = second compound 0.00316 µM, first compound 3.16 µM
[6] = second compound 0.00316 µM, first compound 10 µM
[7] = second compound 0.01 µM, first compound 0.0316 µM
[8] = second compound 0.01 µM, first compound 0.1 µM
[9] = second compound 0.01 µM, first compound 0.316 µM
[10] = second compound 0.01 µM, first compound 1 µM
[11] = second compound 0.01 µM, first compound 3.16 µM
[12] = second compound 0.01 µM, first compound 10 µM
[13] = second compound 0.0316 µM, first compound 0.0316 µM
[14] = second compound 0.0316 µM, first compound 0.1 µM
[15] = second compound 0.0316 µM, first compound 0.316 µM
[16] = second compound 0.0316 µM, first compound 1 µM
[17] = second compound 0.0316 µM, first compound 3.16 µM
[18] = second compound 0.0316 µM, first compound 10 µM
[19] = second compound 0.1 µM, first compound 0.0316 µM
[20] = second compound 0.1 µM, first compound 0.1 µM
[21] = second compound 0.1 µM, first compound 0.316 µM
[22] = second compound 0.1 µM, first compound 1 µM
[23] = second compound 0.1 µM, first compound 3.16 µM
[24] = second compound 0.1 µM, first compound 10 µM
[25] = second compound 0.316 µM, first compound 0.0316 µM
[26] = second compound 0.316 µM, first compound 0.1 µM
[27] = second compound 0.316 µM, first compound 0.316 µM
[28] = second compound 0.316 µM, first compound 1 µM
[29] = second compound 0.316 µM, first compound 3.16 µM
[30] = second compound 0.316 µM, first compound 10 µM
[31] = second compound 1 µM, first compound 0.0316 µM
[32] = second compound 1 µM, first compound 0.1 µM
[33] = second compound 1 µM, first compound 0.316 µM
[34] = second compound 1 µM, first compound 1 µM
[35] = second compound 1 µM, first compound 3.16 µM
[36] = second compound 1 µM, first compound 10 µM
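Note: spheroids exposed to agents for seven days before readout.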
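Throughout, for viability, T/C: percent viability relative to DMSO vehicle control taken as 100%.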

Question: For CC(C)NCC(C(=O)N1CCN(c2ncnc3c2C(C)CC3O)CC1)c1ccc(Cl)cc1 (stereo unspecified) + COc1c(OCCCN2CCOCC2)ccc2c3n(c(=NC(=O)c4cnc(N)nc4)nc12)CCN3, which IC50 (second compound 0.00316 µM) is on record?
Answer: Its IC50 is over 10000 nM.

Question: And the IC50 (second compound 0.01 µM)?
Answer: Its IC50 is over 10000 nM.

Question: And the IC50 (second compound 0.0316 µM)?
Answer: Its IC50 is over 10000 nM.

Question: What about the IC50 (second compound 0.1 µM) of the same compound?
Answer: The IC50 was over 10000 nM.

Question: What about the IC50 (second compound 0.316 µM) of the same compound?
Answer: Its IC50 is under 31.6 nM.

Question: What about the IC50 (second compound 1 µM) of the same compound?
Answer: Its IC50 is under 31.6 nM.

Question: What about the viability, T/C [1] of the same compound?
Answer: Its viability, T/C is 92.1%.

Question: What about the viability, T/C [2] of the same compound?
Answer: Its viability, T/C is 88.9%.

Question: What about the viability, T/C [3] of the same compound?
Answer: Its viability, T/C is 74%.

Question: What about the viability, T/C [4] of the same compound?
Answer: Its viability, T/C is 81.8%.

Question: And the viability, T/C [5]?
Answer: The viability, T/C was 98.8%.

Question: What about the viability, T/C [6] of the same compound?
Answer: The viability, T/C was 81.5%.

Question: And the viability, T/C [7]?
Answer: The viability, T/C was 103%.

Question: What about the viability, T/C [8] of the same compound?
Answer: Its viability, T/C is 96.6%.

Question: What about the viability, T/C [9] of the same compound?
Answer: Its viability, T/C is 82.7%.

Question: And the viability, T/C [10]?
Answer: Its viability, T/C is 97.1%.

Question: And the viability, T/C [11]?
Answer: The viability, T/C was 90%.

Question: And the viability, T/C [12]?
Answer: The viability, T/C was 80.2%.

Question: And the viability, T/C [13]?
Answer: The viability, T/C was 81%.

Question: What about the viability, T/C [14] of the same compound?
Answer: The viability, T/C was 98.1%.

Question: What about the viability, T/C [15] of the same compound?
Answer: Its viability, T/C is 76.6%.

Question: And the viability, T/C [16]?
Answer: Its viability, T/C is 84.4%.

Question: And the viability, T/C [17]?
Answer: Its viability, T/C is 84.3%.

Question: And the viability, T/C [18]?
Answer: Its viability, T/C is 84.1%.

Question: What about the viability, T/C [19] of the same compound?
Answer: Its viability, T/C is 68.4%.

Question: And the viability, T/C [20]?
Answer: Its viability, T/C is 76.4%.

Question: And the viability, T/C [21]?
Answer: Its viability, T/C is 61.4%.

Question: What about the viability, T/C [22] of the same compound?
Answer: Its viability, T/C is 52.2%.

Question: And the viability, T/C [23]?
Answer: Its viability, T/C is 49.7%.

Question: What about the viability, T/C [24] of the same compound?
Answer: Its viability, T/C is 65.8%.

Question: And the viability, T/C [25]?
Answer: Its viability, T/C is 32.2%.

Question: What about the viability, T/C [26] of the same compound?
Answer: Its viability, T/C is 32%.

Question: And the viability, T/C [27]?
Answer: The viability, T/C was 31.9%.

Question: And the viability, T/C [28]?
Answer: The viability, T/C was 17.1%.

Question: And the viability, T/C [29]?
Answer: The viability, T/C was 35.4%.

Question: And the viability, T/C [30]?
Answer: The viability, T/C was 20.6%.

Question: What about the viability, T/C [31] of the same compound?
Answer: Its viability, T/C is 5.67%.

Question: What about the viability, T/C [32] of the same compound?
Answer: The viability, T/C was 11.1%.

Question: What about the viability, T/C [33] of the same compound?
Answer: The viability, T/C was 6.6%.

Question: And the viability, T/C [34]?
Answer: The viability, T/C was 11.4%.

Question: What about the viability, T/C [35] of the same compound?
Answer: Its viability, T/C is 16.2%.

Question: And the viability, T/C [36]?
Answer: The viability, T/C was 10.2%.

Question: What does the source list for CCN1CCN(Cc2ccc(Nc3ncc(F)c(-c4cc(F)c5nc(C)n(C(C)C)c5c4)n3)nc2)CC1 + COc1c(OCCCN2CCOCC2)ccc2c3n(c(=NC(=O)c4cnc(N)nc4)nc12)CCN3?
Answer: IC50 (second compound 0.00316 µM): > 1000 nM; IC50 (second compound 0.01 µM): 816 nM; IC50 (second compound 0.0316 µM): 330 nM; IC50 (second compound 0.1 µM): 9.08 nM; IC50 (second compound 0.316 µM): < 3.16 nM; IC50 (second compound 1 µM): < 3.16 nM; viability, T/C (second compound 0.00316 µM, first compound 0.00316 µM): 81.7%; viability, T/C (second compound 0.00316 µM, first compound 0.01 µM): 92%; viability, T/C [1]: 79.2%; viability, T/C [2]: 60.8%; viability, T/C [3]: 77.3%; viability, T/C [4]: 48.6%; viability, T/C (second compound 0.01 µM, first compound 0.00316 µM): 84.3%; viability, T/C (second compound 0.01 µM, first compound 0.01 µM): 105%; viability, T/C [7]: 97%; viability, T/C [8]: 83.6%; viability, T/C [9]: 71.2%; viability, T/C [10]: 45.5%; viability, T/C (second compound 0.0316 µM, first compound 0.00316 µM): 89.2%; viability, T/C (second compound 0.0316 µM, first compound 0.01 µM): 85.6%; viability, T/C [13]: 80.9%; viability, T/C [14]: 57%; viability, T/C [15]: 59.6%; viability, T/C [16]: 23.7%; viability, T/C (second compound 0.1 µM, first compound 0.00316 µM): 81.3%; viability, T/C (second compound 0.1 µM, first compound 0.01 µM): 46%; viability, T/C [19]: 49.2%; viability, T/C [20]: 49.1%; viability, T/C [21]: 44.4%; viability, T/C [22]: 32%; viability, T/C (second compound 0.316 µM, first compound 0.00316 µM): 34.3%; viability, T/C (second compound 0.316 µM, first compound 0.01 µM): 16.4%; viability, T/C [25]: 30.5%; viability, T/C [26]: 20.7%; viability, T/C [27]: 23.7%; viability, T/C [28]: 22.9%; viability, T/C (second compound 1 µM, first compound 0.00316 µM): 8.08%; viability, T/C (second compound 1 µM, first compound 0.01 µM): 11.5%; viability, T/C [31]: 10.4%; viability, T/C [32]: 9.39%; viability, T/C [33]: 7.45%; viability, T/C [34]: 11.2%

Question: Which results are given for Cn1ncc(Cl)c1-c1cc(C(=O)NC(CN)Cc2cccc(F)c2)sc1Cl (stereo unspecified) + COc1c(OCCCN2CCOCC2)ccc2c3n(c(=NC(=O)c4cnc(N)nc4)nc12)CCN3?
Answer: IC50 (second compound 0.00316 µM): 4100 nM; IC50 (second compound 0.01 µM): 2780 nM; IC50 (second compound 0.0316 µM): 1640 nM; IC50 (second compound 0.1 µM): 516 nM; IC50 (second compound 0.316 µM): < 31.6 nM; IC50 (second compound 1 µM): < 31.6 nM; viability, T/C [1]: 70.1%; viability, T/C [2]: 88.1%; viability, T/C [3]: 83.2%; viability, T/C [4]: 83.7%; viability, T/C [5]: 58.9%; viability, T/C [6]: 19.6%; viability, T/C [7]: 81.6%; viability, T/C [8]: 97.4%; viability, T/C [9]: 98.8%; viability, T/C [10]: 77.8%; viability, T/C [11]: 46.8%; viability, T/C [12]: 46.1%; viability, T/C [13]: 81.9%; viability, T/C [14]: 80.1%; viability, T/C [15]: 78.8%; viability, T/C [16]: 59.6%; viability, T/C [17]: 36.3%; viability, T/C [18]: 20.5%; viability, T/C [19]: 61.7%; viability, T/C [20]: 62.8%; viability, T/C [21]: 56.9%; viability, T/C [22]: 37.7%; viability, T/C [23]: 36.7%; viability, T/C [24]: 16.1%; viability, T/C [25]: 21.4%; viability, T/C [26]: 42.5%; viability, T/C [27]: 19.2%; viability, T/C [28]: 34.3%; viability, T/C [29]: 31.9%; viability, T/C [30]: 11.3%; viability, T/C [31]: 8.63%; viability, T/C [32]: 9.16%; viability, T/C [33]: 15.4%; viability, T/C [34]: 10.9%; viability, T/C [35]: 7.03%; viability, T/C [36]: 1.23%
